Measurements: patent publication US8524637B2, “Composition for controlling pests and method for controlling pests” (Sumitomo Chemical Company, Limited, priority 2008, dated 2013)

Tested on: Rhizoctonia solani
Assay: Cucumber seed treatment test against Rhizoctonia solani (Test Example 1)
Assay type: in vivo
Settings: cucumber seeds, acetone solution, seven days after seeding
From the text: An emulsifiable concentrate was obtained by mixing clothianidin and metconazole.
In accordance with Seed Treatment Example 5, cucumber (Sagami Hanjiro) seeds were smeared with the emulsifiable concentrate using a rotary seed treating machine (seed dresser, manufactured by Hans-Ulrich Hege GmbH).
The obtained treated seeds were allowed to stand overnight and sown on the soil with which each plastic pot was filled and then covered with the soil mixed with Rhizoctonia solani cultured in a bran culture medium. While sprinkling, culture was conducted in a greenhouse. Seven days after seeding, the number of seeds not showing epicotyl emergence was checked and severity was calculated using Equation 1 shown below. Based on the severity, the control value was calculated using Equation 2.
For comparison, acetone solutions each having a predetermined concentration of clothianidin or metconazole were prepared by mixing each of clothianidin and metconazole with acetone, and the same test was carried out. Severity=(number of seeds not showing epicotyl emergence)×100/(total number of sown seeds) Equation 1 Control value=100×(A−B)/A Equation 2 • A: Severity of plants of the chemical non-treated district • B: Severity of plants of the chemical treated district

Row | Structure (SMILES) | Control value (clothianidin 200 g, metconazole 0 g per 100 kg of seeds) | Control value (clothianidin 0 g, metconazole 1 g per 100 kg of seeds)
1 | CN/C(=N\[N+](=O)[O-])NCc1cnc(Cl)s1 [Clothianidin, clothianidin] | 4 | 
2 | CC1(C)CCC(Cc2ccc(Cl)cc2)C1(O)Cn1cncn1 (centres unmarked) [Metconazole, metconazole] |  | 39
